{
  "source": "patent US20250281610A1",
  "about": "“P2RY2 ACTIVITY MODULATORS” (Deutsches Krebsforschungszentrum Stiftung des öffentlichen …, priority 2022, published 2025)",
  "key": {"THP-1 cells": {"system": "THP-1 cells", "assay": "Viability of THP-1 cells in co-culture with CD33-specific CAR-T cells (flow cytometry-based cell counting)", "parameters": "species or system human", "conditions": "5 μM AR-C", "experimental": "FIG. 8. Effects of P2RY2 antagonist on T cells and cancer cells in T cell-cancer cell co-cultures. T cells transduced with CD33-specific CAR (CAR-T) were co-cultured with genetically edited THP-1 cells in the absence or presence of 5 μM AR-C 118925XX (AR-C) for 6-24 hours. Control cells: THP-1 cells transduced with non-targeting sgRNA and Cas9 (gNT); P2RY2 deficient cells: THP-1 cells transduced with P2RY2-targeting sgRNA and Cas9 (gP2RY2-3, gP2RY2-4); B7-H3 (CD276) deficient cells: THP-1 cells transduced with B7-H3-targeting sgRNA and Cas9 (gCD276-1); P2RY2 and B7-H3 double deficient cells: THP-1 cells transduced with P2RY2-targeting sgRNA, B7-H3-targeting sgRNA, and Cas9 (gCD276-1 gP2RY2-3 DKO, gCD276-1 gP2RY2-4 DKO); P2RY2 overexpression cells: THP-1 cells transduced with the open reading frame of P2RY2 (P2RY2-OE); B7-H3 overexpression cells: THP-1 cells transduced with the open reading frame of CD276 (CD276-OE). […]\nFIG. 9. […] Control cells THP-1 cells transduced with non-targeting sgRNA and Cas9 (Ctrl.); P2RY2 overexpression cells: THP-1 cells transduced with the open reading frame of P2RY2 (P2RY2-OE). […]\n(§1) The open reading frames of transcripts of P2RY2(ENST00000393597.7) or CD276(ENST00000318443.10), were ordered as a codon optimized gBlock Gene Fragment (Integrated DNA Technologies or Twist Bioscience) and cloned into a lentiviral vector containing a blasticidin selection cassette. […]\nMART1-specific CD8+ T cells and MART1 epitope-expressing cancer cells were mixed at a ratio of 1:16 to 1:4. […] T cell activation was assessed by surface staining with anti-CD137-BV421 (4-1BB, Biolegend), anti-CD69-APC/Fire™ 750 (FN50, Biolegend), anti-CD25-AF700 (BC96, Biolegend) antibodies and intracellular staining with anti-IL-2-PE/Cy7 (MQ1-17H12, Biolegend), anti-IFN-7-BV421 (4S.B3, Biolegend), anti-TNF-α-BV785 (MAb11, Biolegend) antibodies, followed by flow cytometry analysis. […] The viability of cancer cells that grow in suspension including THP-1 cells was assessed by flow cytometry-based absolute cell counting using AccuCount beads (Spherotech). […]"}, "[1]": {"system": "CD33-specific CAR transduced T cells co-cultured with THP-1 cells", "assay": "T cell cytokine production in co-culture of CD33-specific CAR-T cells with THP-1 cells", "format": "cell-based, human", "conditions": "5 μM AR-C", "experimental": "FIG. 8. Effects of P2RY2 antagonist on T cells and cancer cells in T cell-cancer cell co-cultures. T cells transduced with CD33-specific CAR (CAR-T) were co-cultured with genetically edited THP-1 cells in the absence or presence of 5 μM AR-C 118925XX (AR-C) for 6-24 hours. Control cells: THP-1 cells transduced with non-targeting sgRNA and Cas9 (gNT); P2RY2 deficient cells: THP-1 cells transduced with P2RY2-targeting sgRNA and Cas9 (gP2RY2-3, gP2RY2-4); B7-H3 (CD276) deficient cells: THP-1 cells transduced with B7-H3-targeting sgRNA and Cas9 (gCD276-1); P2RY2 and B7-H3 double deficient cells: THP-1 cells transduced with P2RY2-targeting sgRNA, B7-H3-targeting sgRNA, and Cas9 (gCD276-1 gP2RY2-3 DKO, gCD276-1 gP2RY2-4 DKO); P2RY2 overexpression cells: THP-1 cells transduced with the open reading frame of P2RY2 (P2RY2-OE); B7-H3 overexpression cells: THP-1 cells transduced with the open reading frame of CD276 (CD276-OE). Transduced cancer cells were selected by antibiotics according to antibiotic resistance genes carried by the lentiviral constructs. Flow cytometry analysis of expression of production of IFNγ and TNFα within the CD3+CD8+ cell population is shown (values indicate the percentages of positive cells). For the viability of THP-1 cells, normalized cell counts of viable cells after co-culture with CD33-specific CAR-T cells is shown. The end-point cell counts were normalized to the number of THP-1 cells in cultures without T cells.\nMART-1 specific T cells were generated as described (Mezzadra et al., Nature 549, 106-110 (2017); Jorritsma et al., Blood 110 (10): 3564-3572. (2007)). […]\nas §1\nMART1-specific CD8+ T cells and MART1 epitope-expressing cancer cells were mixed at a ratio of 1:16 to 1:4. […] T cell activation was assessed by surface staining with anti-CD137-BV421 (4-1BB, Biolegend), anti-CD69-APC/Fire™ 750 (FN50, Biolegend), anti-CD25-AF700 (BC96, Biolegend) antibodies and intracellular staining with anti-IL-2-PE/Cy7 (MQ1-17H12, Biolegend), anti-IFN-7-BV421 (4S.B3, Biolegend), anti-TNF-α-BV785 (MAb11, Biolegend) antibodies, followed by flow cytometry analysis. […] The viability of cancer cells that grow in suspension including THP-1 cells was assessed by flow cytometry-based absolute cell counting using AccuCount beads (Spherotech). For adherent cancer cells including BxPC3 and MCF7, the cell viability was quantified using CellTiter-Blue Cell Viability Assay (Promega)."}, "[2]": {"conditions": "6-24 hours, P2RY2 proficient THP-1 cells, CD3+CD8+ population (FIG. 8)"}, "[3]": {"conditions": "P2RY2 deficient THP-1 cells (FIG. 8)"}},
  "data": [
    {"compound": "Cc1ccc2c(c1)C=Cc1cc(C)ccc1C2c1cn(Cc2ccc(C(=O)Nc3nn[nH]n3)o2)c(=O)[nH]c1=S", "note": "[AR-C 118925XX]", "values": [
      {"measurement": "viability of P2RY2 proficient THP-1 cells", "setting": "THP-1 cells; 6-24 hours, co-culture with CD33-specific CAR-T cells (FIG. 8)", "value": "reduced"},
      {"measurement": "viability of tumor cells upon P2RY2 deletion", "setting": "THP-1 cells; P2RY2 deficient THP-1 cells, CAR-T cell-THP-1 cell coculture (FIG. 8)", "value": "does not influence"},
      {"measurement": "production of IFNγ by T cells", "setting": "[1]; [2]", "value": "increased"},
      {"measurement": "production of TNFα by T cells", "setting": "[1]; [2]", "value": "increased"},
      {"measurement": "production of IFNγ in T cell upon P2RY2 deletion", "setting": "[1]; [3]", "value": "does not influence"},
      {"measurement": "production of TNFα in T cell upon P2RY2 deletion", "setting": "[1]; [3]", "value": "does not influence"}
    ]}
  ]
}
